The molecules below were run against human activated kallikrein enzyme (Homo sapiens, UniProt P03952) (assay: Inhibition of human activated plasma kallikrein, fluorogenic PFR-AMC substrate, 500 pM enzyme format). Settings: 500 pM activated kallikrein; 300 μM PFR-AMC; 30 min preincubation; 10 min room temperature; pH 7.5; read-out: Primary Dose Response Assay: Average EC50.
Type: biochemical
In short: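 500 pM activated kallikrein preincubated 30 min at room temperature with inhibitors in pH 7.5 Tris/EDTA/NaCl buffer with PEG-400 and Triton X-100. Reaction started with 300 μM PFR-AMC, run 10 min at room temperature; AMC fluorescence read at ex 380/em 460 nm.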

Chain of human activated kallikrein enzyme (P03952 391-638 limits assumed): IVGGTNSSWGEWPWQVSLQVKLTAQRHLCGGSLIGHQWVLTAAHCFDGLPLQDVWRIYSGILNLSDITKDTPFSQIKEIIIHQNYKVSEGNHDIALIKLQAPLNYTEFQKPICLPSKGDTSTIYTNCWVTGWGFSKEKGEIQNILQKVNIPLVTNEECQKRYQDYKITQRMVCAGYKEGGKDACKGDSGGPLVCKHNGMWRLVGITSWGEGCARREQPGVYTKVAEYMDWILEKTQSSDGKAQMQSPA
Chain of human activated kallikrein enzyme (P03952 20-390 partner limits assumed): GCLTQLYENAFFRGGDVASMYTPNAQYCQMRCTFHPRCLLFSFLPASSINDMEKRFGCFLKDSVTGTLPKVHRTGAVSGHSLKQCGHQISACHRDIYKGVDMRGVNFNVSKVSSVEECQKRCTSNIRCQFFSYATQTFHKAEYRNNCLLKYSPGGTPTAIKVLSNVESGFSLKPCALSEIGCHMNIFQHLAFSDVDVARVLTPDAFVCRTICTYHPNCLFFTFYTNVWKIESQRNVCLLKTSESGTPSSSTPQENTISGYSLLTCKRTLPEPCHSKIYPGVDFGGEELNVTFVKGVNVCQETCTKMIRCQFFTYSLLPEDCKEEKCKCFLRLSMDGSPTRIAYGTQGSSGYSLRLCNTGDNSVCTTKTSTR

Compound	EC50
Cc1cc2c(N)nccc2c(C)c1CNC(=O)c1cnn(Cc2ccc(CC(=O)N(C)Cc3ccccc3)cc2)c1 [Example 220, N-((1-amino-5,7-dimethylisoquinolin-6-yl)methyl)-1-(4-(2-(benzyl(methyl)amino)-2-oxoethyl)benzyl)-1H-pyrazole-4-carboxamide]	1 to 10 nM
Cc1cc2c(N)nccc2c(C)c1CNC(=O)c1cnn(Cc2ccc(CC(=O)NC34CC(C3)C4)cc2)c1 [Example 221, N-((1-amino-5,7-dimethylisoquinolin-6-yl)methyl)-1-(4-(2-(bicyclo[1.1.1]pentan-1-ylamino)-2-oxoethyl)benzyl)-1H-pyrazole-4-carboxamide]	1 to 10 nM
Cc1cc2c(N)nccc2c(C)c1CNC(=O)c1cnn(Cc2ccc(CC(=O)N3CCCCC3)cc2)c1 [Example 223, N-((1-amino-5,7-dimethylisoquinolin-6-yl)methyl)-1-(4-(2-oxo-2-(piperidin-1-yl)ethyl)benzyl)-1H-pyrazole-4-carboxamide]	1 to 10 nM
Cc1cc2c(N)nccc2c(C)c1CNC(=O)c1cnn(Cc2ccc(CC(=O)N(C)C3CC3)cc2)c1 [Example 224, N-((1-amino-5,7-dimethylisoquinolin-6-yl)methyl)-1-(4-(2-(cyclopropyl(methyl)amino)-2-oxoethyl)benzyl)-1H-pyrazole-4-carboxamide]	< 1 nM
Cc1cc2c(N)nccc2c(C)c1CNC(=O)c1cnn(Cc2ccc(CC(=O)N3CCOCC3)cc2)c1 [Example 225, N-((1-amino-5,7-dimethylisoquinolin-6-y1)methyl)-1-(4-(2-morpholino-2-oxoethyl)benzyl)-1H-pyrazole-4-carboxamide]	1 to 10 nM
CCN(CC)C(=O)Cc1ccc(Cn2cc(C(=O)NCc3c(C)cc4c(N)nccc4c3C)cn2)cc1 [Example 226, N-((1-amino-5,7-dimethylisoquinolin-6-yl)methyl)-1-(4-(2-(diethylamino)-2-oxoethyl)benzyl)-1H-pyrazole-4-carboxamide]	< 1 nM
Cc1cc2c(N)nccc2c(C)c1CNC(=O)c1cnn(Cc2ccc(CC(=O)Nc3ccccc3)cc2)c1 [Example 227, N-((1-amino-5,7-dimethylisoquinolin-6-yl)methyl)-1-(4-(2-oxo-2-(phenylamino)ethyl)benzyl)-1H-pyrazole-4-carboxamide]	10 to 100 nM
Cc1cc2c(N)nccc2c(C)c1CNC(=O)c1cnn(Cc2ccc(CC(=O)N(C)c3ccccc3)cc2)c1 [Example 228, N-((1-amino-5,7-dimethylisoquinolin-6-yl)methyl)-1-(4-(2-(methyl(phenyl)amino)-2-oxoethyl)benzyl)-1H-pyrazole-4-carboxamide]	1 to 10 nM
Cc1cc2c(N)nccc2c(C)c1CNC(=O)c1cnn(Cc2ccc(CC(=O)NCc3ccccc3)cc2)c1 [Example 229, N-((1-amino-5,7-dimethylisoquinolin-6-yl)methyl)-1-(4-(2-(benzylamino)-2-oxoethyl)benzyl)-1H-pyrazole-4-carboxamide]	10 to 100 nM
CNC(=O)Cc1ccc(Cn2cc(C(=O)NCc3c(C)cc4c(N)nccc4c3C)cn2)cc1 [Example 230, N-((1-amino-5,7-dimethylisoquinolin-6-y1)methy1)-1-(4-(2-(methylamino)-2-oxoethyl)benzyl)-1H-pyrazole-4-carboxamide]	< 1 nM
Cc1cc2c(N)nccc2c(C)c1CNC(=O)c1cnn(Cc2ccc(CC(N)=O)cc2)c1 [Example 231, 1-(4-(2-amino-2-oxoethyl)benzyl)-N-((1-amino-5,7-dimethylisoquinolin-6-yl)methyl)-1H-pyrazole-4-carboxamide]	10 to 100 nM
Cc1cc2c(N)nccc2c(C)c1CNC(=O)c1cnn(Cc2ccc(CC(=O)N3CCCC3)cc2)c1 [Example 232, N-((1-amino-5,7-dimethylisoquinolin-6-yl)methyl)-1-(4-(2-oxo-2-(pyrrolidin-1-yl)ethyl)benzyl)-1H-pyrazole-4-carboxamide]	< 1 nM
Cc1cc2c(N)nccc2c(C)c1CNc1cc(NCc2ccc3ccccc3c2)ncn1 [Example 233, N4-((1-amino-5,7-dimethylisoquinolin-6-yl)methyl)-N6-(naphthalen-2-ylmethyl)pyrimidine-4,6-diamine]	10 to 100 nM
Cc1cc2c(N)nccc2c(C)c1CNc1ncnc(NCc2ccc(Cn3cccn3)cc2)c1F [Example 234, N4-(4-((1H-pyrazol-1-yl)methyl)benzyl)-N6-((1-amino-5,7-dimethylisoquinolin-6-yl)methyl)-5-fluoropyrimidine-4,6-diamine]	10 to 100 nM
Cc1cc2c(N)nccc2c(C)c1CNc1cc(N(C)Cc2ccc(Cn3cccn3)cc2)cnn1 [Example 235, N5-(4-((1H-pyrazol-1-yl)methyl)benzyl)-N3-((1-amino-5,7-dimethylisoquinolin-6-yl)methyl)-N5-methylpyridazine-3,5-diamine]	< 1 nM
Cc1cc2c(N)nccc2c(C)c1CNc1cc(NCc2ccc(Cn3ccccc3=O)cc2)ncn1 [Example 237, 1-(4-(((6-(((1-amino-5,7-dimethylisoquinolin-6-yl)methyl)amino)pyrimidin-4-yl)amino)methyl)benzyl)pyridin-2(1H)-one]	< 1 nM
Cc1cc2c(Nc3cc(OCc4ccc5ncc(C6CC6)cc5c4)ccn3)nccc2c(C)c1CN [Example 238, 6-(aminomethyl)-N-(4-((3-cyclopropylquinolin-6-yl)methoxy)pyridin-2-yl)-5,7-dimethylisoquinolin-1-amine]	100 to 1000 nM
Cc1cc2c(N)nccc2c(C)c1CNc1cc(NCc2ccc3c(-c4ccccn4)cccc3c2)ncn1 [Example 241, N4-((1-amino-5,7-dimethylisoquinolin-6-yl)methyl)-N6-((5-(pyridin-2-yl)naphthalen-2-yl)methyl)pyrimidine-4,6-diamine]	1 to 10 nM

More lines, now with the values ahead:

EC50	Compound
< 1 nM	Cc1cc2c(N)nccc2c(C)c1CNc1cc(NCc2ccc3c(-n4ccccc4=O)cccc3c2)ncn1 [Example 245, 1-(6-(((6-(((1-amino-5,7-dimethylisoquinolin-6-yl)methyl)amino)pyrimidin-4-yl)amino)methyl)naphthalen-1-yl)pyridin-2(1H)-one]
< 1 nM	Cc1cc2c(N)nccc2c(C)c1CNc1cc(NCc2ccc3c(-n4cccn4)cccc3c2)ncn1 [Example 246, N4-((5-(1H-pyrazol-1-yl)naphthalen-2-yl)methyl)-N6-((1-amino-5,7-dimethylisoquinolin-6-yl)methyl)pyrimidine-4,6-diamine]
1 to 10 nM	CC(=O)Nc1nccc2cc(C)c(CNc3cc(NCc4ccc(Cn5ccccc5=O)cc4)ncn3)c(C)c12 [Example 247, N-(6,8-dimethyl-7-(((6-((4-((2-oxopyridin-1(2H)-yl)methyl)benzyl)amino)pyrimidin-4-yl)amino)methyl)isoquinolin-1-yl)acetamide]
1 to 10 nM	Cc1cc2ccnc(NC(=O)OCc3ccccc3)c2c(C)c1CNc1cc(NCc2ccc(Cn3ccccc3=O)cc2)ncn1 [Example 248, benzyl (6,8-dimethyl-7-(((6-((4-((2-oxopyridin-1(2H)-yl)methyl)benzyl)amino)pyrimidin-4-yl)amino)methyl)isoquinolin-1-yl)carbamate]
10 to 100 nM	CCOC(=O)Nc1nccc2c(C)c(CNc3cc(NCc4ccc(Cn5ccccc5=O)cc4)ncn3)c(C)cc12 [Example 249, ethyl (5,7-dimethyl-6-(((6-((4-((2-oxopyridin-1(2H)-yl)methyl)benzyl)amino)pyrimidin-4-yl)amino)methyl)isoquinolin-1-yl)carbamate]
10 to 100 nM	Cc1cc2c(N)nccc2c(C)c1CNc1cc(OCc2ccc3ccccc3c2)cnn1 [Example 252, 5,7-dimethyl-6-(((5-(naphthalen-2-ylmethoxy)pyridazin-3-yl)amino)methyl)isoquinolin-1-amine]
100 to 1000 nM	Cc1cc2c(N)nccc2c(C)c1CNc1nccc2nnn(Cc3cn4cc(C5CC5)ccc4n3)c12 [Example 253, 6-(((3-((6-cyclopropylimidazo[1,2-a]pyridin-2-yl)methyl)-3H-[1,2,3]triazolo[4,5-c]pyridin-4-yl)amino)methyl)-5,7-dimethylisoquinolin-1-amine]
> 1000 nM	Cc1cc2c(N)nccc2c(C)c1CNc1nccc2c1nnn2Cc1cn2cc(C3CC3)ccc2n1 [Example 254, 6-(((1-((6-cyclopropylimidazo[1,2-a]pyridin-2-yl)methyl)-1H-[1,2,3]triazolo[4,5-c]pyridin-4-yl)amino)methyl)-5,7-dimethylisoquinolin-1-amine]
100 to 1000 nM	Cc1c(CN)c(C2(C)CC2)cc2c(Nc3cc(OCc4cn5cc(C6CC6)ccc5n4)ncn3)nccc12 [Example 255, 6-(aminomethyl)-N-(6-((6-cyclopropylimidazo[1,2-a]pyridin-2-yl)methoxy)pyrimidin-4-yl)-5-methyl-7-(1-methylcyclopropyl)isoquinolin-1-amine]
1 to 10 nM	Cc1cc2c(N)nccc2c(C)c1CNc1cc(OCc2cn3cc(C4CC4)cc(-n4c(C)nnc4C)c3n2)ncn1 [Example 257, 6-(((6-((6-cyclopropyl-8-(3,5-dimethyl-4H-1,2,4-triazol-4-yl)imidazo[1,2-a]pyridin-2-yl)methoxy)pyrimidin-4-yl)amino)methyl)-5,7-dimethylisoquinolin-1-amine]
1 to 10 nM	Cc1cc2c(N)nccc2c(C)c1CNc1nccc2cn(Cc3ccc(Cn4cccn4)cc3)nc12 [Example 260, 6-(((2-(4-((1H-pyrazol-1-yl)methyl)benzyl)-2H-pyrazolo[3,4-c]pyridin-7-yl)amino)methyl)-5,7-dimethylisoquinolin-1-amine]
1 to 10 nM	Cc1cc2c(N)nccc2c(C)c1CNc1nccc2cn(Cc3nc4ccc(C5CC5)cn4n3)nc12 [Example 263, 6-(((2-((6-cyclopropyl-[1,2,4]triazolo[1,5-a]pyridin-2-yl)methyl)-2H-pyrazolo[3,4-c]pyridin-7-yl)amino)methyl)-5,7-dimethylisoquinolin-1-amine]

From patent publication US20260374754A1, “N-((ISOQUINOLIN-6-YL)METHYL)-1H-PYRAZOLE-4-CARBOXAMIDE DERIVATIVES AS PLASMA KALLIKREIN INHIBITORS FOR THE TREATMENT OF HEREDITARY ANGIODEMA” (Takeda Pharmaceutical Company Limited, priority 2022, published 2026)
